“And” between values parts separate entries of the source, which are not always exact repeats. Equal entries are not always repeated.
Key:
[1] = Biodistribution of DRV administered via intravenous; type: in vivo; details: Balb/c mice; for DRV accumulation cumulatively in the brain / DRV uptake cumulative in liver / DRV uptake cumulative in plasma / DRV accumulation cumulatively for all time points in plasma / DRV accumulation cumulatively for all time points in the brain / DRV concentration in liver (cumulative): cumulative 1, 3, 6, 12 h, mean ± S.E.M.; for concentration at 1 h: both, Balb/c, mouse, brain, other: intranasal (IN), DRV concentration in brain (Mean)
[2] = cited from earlier work

Increase of DRV accumulation in the brain, IN compared to IV delivery ([1]; 2.5 mg/kg, 1 h, p ≤ 0.05) [fold]	Increase of DRV accumulation in the brain, IN compared to IV delivery ([1]; 2.5 mg/kg, 3 h, p ≤ 0.05) [fold]	DRV accumulation cumulatively in the brain ([1]; 2.5 mg/kg, IN)	DRV uptake cumulative in liver ([1]; 2.5 mg/kg, IN) [ng/g]	DRV uptake cumulative in plasma ([1]; 2.5 mg/kg, IN) [ng/g]	DRV accumulation cumulatively in the brain ([1]; 2.5 mg/kg, IV) [ng/g]	DRV uptake cumulative in liver ([1]; 2.5 mg/kg, IV) [ng/g]	DRV uptake cumulative in plasma ([1]; 2.5 mg/kg, IV) [ng/g]	Lung DRV concentration, IN compared to IV ([1]; 2.5 mg/kg, individual or cumulative time points)	Increase of DRV accumulation in the brain, IN compared to IV delivery ([1]; 25 mg/kg, 1 h, p ≤ 0.001) [fold]	DRV accumulation cumulatively for all time points in plasma ([1]; 25 mg/kg, IN) [ng/g]	DRV accumulation cumulatively for all time points in the brain ([1]; 25 mg/kg, IN)	DRV concentration in liver (cumulative) ([1]; 25 mg/kg, IN) [ng/g]	DRV accumulation cumulatively for all time points in plasma ([1]; 25 mg/kg, IV) [ng/g]	DRV accumulation cumulatively for all time points in the brain ([1]; 25 mg/kg, IV) [ng/g]	DRV concentration in liver (cumulative) ([1]; 25 mg/kg, IV) [ng/g]	concentration at 1 h ([1]; 2.5 mg/kg, 2.5 mg/kg, IN, 1 h) [ng/g]	concentration at 1 h ([1]; 25 mg/kg, 25 mg/kg, IN, 1 h) [ng/g]	Structure (SMILES)	Brain to plasma ratio, IN compared to IV administration [2]
~3	~2	12.08 ± 2.91 ng/g and ~12 ng/g	29.27 ± 4.17	19.91 ± 12.65	6.91 ± 1.69	118.39 ± 28.13	81.37 ± 22.04	did not significantly increase	~2	320.56 ± 40.04	19.74 ± 1.80 ng/g and ~20 ng/g	833.83 ± 242.4	899.12 ± 136.93	12.84 ± 2.88	1085.18 ± 255.0	~5	~12	CC(C)CN(C[C@@H](O)[C@H](Cc1ccccc1)NC(=O)O[C@H]1CO[C@H]2OCC[C@H]21)S(=O)(=O)c1ccc(N)cc1 [DRV, Darunavir]	–
–	–	–	–	–	–	–	–	–	–	–	–	–	–	–	–	–	–	CN(C)CCCN=C(N)c1ccc(C(N)=NCCCN(C)C)cc1 [DB213]	significantly high tissue distribution in the brain to plasma ratio

From paper PMC9747527 (Biochemistry and Biophysics Reports, 2022)
